Test results as given in patent US9688710B2, “Inhibitors of sodium glucose cotransporter 1” (LEXICON PHARMACEUTICALS, INC., priority 2012, dated 2017).

Experiments:
[1] = biological target: Human sodium/glucose co-transporter type 2 (SGLT2) (Homo sapiens (Human), UniProt P31639); test: In vitro human SGLT2 inhibition assay (14C-AMG uptake); format: cell-based; conditions: HEK293 cells expressing human HA-SGLT2, 14C-AMG uptake
How it was run: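 HEK293 cells stably expressing HA-tagged human SGLT2, seeded overnight, washed into Na+-containing HEPES/Tris uptake buffer with 1 mg/mL BSA, pH 7.3. Compound added, then 14C-AMG (100 nCi); 1-2 h at 37 °C, 5% CO2. Washed cells counted by scintillation for 14C-AMG uptake.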

[2] = biological target: Human sodium/glucose co-transporter type 1 (SGLT1) (Homo sapiens (Human), UniProt P13866); test: In vitro human SGLT1 inhibition assay (14C-AMG uptake); format: cell-based; design: key to SGLT1 (human SGLT1 IC50): ***: a value less than 0.01 μM; **: a value less than 0.1 μM; *: a value less than 1 μM; —: a value not measured or exceeding μM; conditions: HEK293 cells expressing human HA-SGLT1, 14C-AMG uptake
How it was run: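 HEK293 cells stably expressing human HA-tagged SGLT1 (30,000/well, overnight) were washed into Na+-containing uptake buffer (140 mM NaCl, HEPES/Tris, 1 mg/mL BSA, pH 7.3). Cells then received compound plus 100 nCi 14C-AMG for 1–2 h at 37 °C; after washing, AMG uptake was quantified by scintillation counting.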

Chain of Human sodium/glucose co-transporter type 2 (SGLT2) (P31639 whole entry): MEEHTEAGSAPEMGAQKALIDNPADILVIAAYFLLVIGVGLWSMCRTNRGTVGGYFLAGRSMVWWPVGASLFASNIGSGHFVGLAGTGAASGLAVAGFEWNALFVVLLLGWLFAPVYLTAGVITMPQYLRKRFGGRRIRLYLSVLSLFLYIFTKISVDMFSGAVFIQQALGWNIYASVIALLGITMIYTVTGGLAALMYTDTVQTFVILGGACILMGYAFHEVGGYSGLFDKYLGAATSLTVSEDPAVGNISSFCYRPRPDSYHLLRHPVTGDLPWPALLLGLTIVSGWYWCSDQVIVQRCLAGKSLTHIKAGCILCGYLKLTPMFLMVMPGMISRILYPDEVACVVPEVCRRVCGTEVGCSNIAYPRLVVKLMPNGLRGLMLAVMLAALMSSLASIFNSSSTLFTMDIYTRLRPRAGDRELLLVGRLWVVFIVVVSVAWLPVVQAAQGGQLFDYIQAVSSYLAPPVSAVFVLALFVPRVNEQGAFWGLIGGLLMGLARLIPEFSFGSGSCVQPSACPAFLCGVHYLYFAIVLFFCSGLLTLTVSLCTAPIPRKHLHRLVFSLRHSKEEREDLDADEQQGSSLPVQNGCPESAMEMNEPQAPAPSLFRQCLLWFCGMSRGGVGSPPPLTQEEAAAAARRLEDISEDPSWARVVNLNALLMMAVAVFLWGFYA
Chain of Human sodium/glucose co-transporter type 1 (SGLT1) (P13866 whole entry): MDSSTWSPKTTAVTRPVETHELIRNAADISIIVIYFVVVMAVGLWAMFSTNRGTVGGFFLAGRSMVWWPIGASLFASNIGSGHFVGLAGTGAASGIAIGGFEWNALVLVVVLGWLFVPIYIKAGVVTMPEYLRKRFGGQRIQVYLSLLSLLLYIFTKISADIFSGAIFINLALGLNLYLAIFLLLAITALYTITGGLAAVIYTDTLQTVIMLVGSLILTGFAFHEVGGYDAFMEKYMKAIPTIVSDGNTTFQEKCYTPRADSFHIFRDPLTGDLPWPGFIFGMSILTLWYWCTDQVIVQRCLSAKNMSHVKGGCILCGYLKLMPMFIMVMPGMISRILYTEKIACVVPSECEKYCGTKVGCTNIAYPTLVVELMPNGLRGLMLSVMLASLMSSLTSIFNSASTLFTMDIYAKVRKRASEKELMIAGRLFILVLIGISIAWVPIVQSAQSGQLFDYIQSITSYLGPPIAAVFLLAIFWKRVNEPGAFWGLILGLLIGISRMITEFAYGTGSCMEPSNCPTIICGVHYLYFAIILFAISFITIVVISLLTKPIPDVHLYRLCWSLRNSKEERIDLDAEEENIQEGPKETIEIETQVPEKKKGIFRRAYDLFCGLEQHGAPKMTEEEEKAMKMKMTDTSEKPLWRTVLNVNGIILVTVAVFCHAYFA

Row | IC50 [1] [nM] | IC50 [2] [nM] | SGLT1 (human SGLT1 IC50) [2] | Structure (SMILES)
1 | < 10 | < 100 |  | CS[C@H]1O[C@@H](c2ccc(C)c(Cc3ccc(OCCCC(=O)NCC(N)=O)cc3)c2)[C@H](O)[C@@H](O)[C@@H]1O [N-(2-amino-2-oxoethyl)-4-(4-(2-methyl-5-((2S,3R,4R,5S,6R)-3,4,5-trihydroxy-6-(methylthio)tetrahydro-2H-pyran-2-yl)benzyl)phenoxy)butanamide]
2 | < 10 | < 100 |  | CS[C@H]1O[C@@H](c2ccc(C)c(Cc3ccc(OCCCC(=O)NCCO)cc3)c2)[C@H](O)[C@@H](O)[C@@H]1O [N-(2-hydroxyethyl)-4-(4-(2-methyl-5-((2S,3R,4R,5S,6R)-3,4,5-trihydroxy-6-(methylthio)tetrahydro-2H-pyran-2-yl)benzyl)phenoxy)butanamide]
3 | < 10 | < 100 |  | Cc1ccc([C@@H]2O[C@H]([S+](C)[O-])[C@@H](O)[C@H](O)[C@H]2O)cc1Cc1ccc(CCCC(=O)NC(C)(C)C(=O)N2CCN(C)CC2)cc1 (stereo partly drawn) [N-(2-methyl-1-(4-methylpiperazin-1-yl)-1-oxopropan-2-yl)-4-(4-(2-methyl-5-((2S,3R,4R,5S,6R)-3,4,5-trihydroxy-6-(methylsulfinyl)tetrahydro-2H-pyran-2-yl)benzyl)phenyl)butanamide]
4 | < 10 | < 10 |  | CS[C@H]1O[C@@H](c2ccc(C)c(Cc3ccc(CCCC(=O)NC(C)(C)C(=O)N4CCN(C)CC4)cc3)c2)[C@H](O)[C@@H](O)[C@@H]1O [N-(2-methyl-1-(4-methylpiperazin-1-yl)-1-oxopropan-2-yl)-4-(4-(2-methyl-5-((2S,3R,4R,5S,6R)-3,4,5-trihydroxy-6-(methylthio)tetrahydro-2H-pyran-2-yl)benzyl)phenyl)butanamide]
5 | < 10 | < 10 |  | CS[C@H]1O[C@@H](c2ccc(C)c(Cc3ccc(CCCCC(=O)NC(C)(C)C(=O)N4CCN(C)CC4)cc3)c2)[C@H](O)[C@@H](O)[C@@H]1O [N-(2-methyl-1-(4-methylpiperazin-1-yl)-1-oxopropan-2-yl)-5-(4-(2-methyl-5-((2S,3R,4R,5S,6R)-3,4,5-trihydroxy-6-(methylthio)tetrahydro-2H-pyran-2-yl)benzyl)phenyl)pentanamide]
6 | < 10 | < 10 |  | CS[C@H]1O[C@@H](c2ccc(C)c(Cc3ccc(OCCCC(=O)NC(C)(C)C(=O)N4CCC(C)CC4)cc3)c2)[C@H](O)[C@@H](O)[C@@H]1O [N-(2-methyl-1-(4-methylpiperidin-1-yl)-1-oxopropan-2-yl)-4-(4-(2-methyl-5-((2S,3R,4R,5S,6R)-3,4,5-trihydroxy-6-(methylthio)tetrahydro-2H-pyran-2-yl)benzyl)phenoxy)butanamide]
7 | < 10 | < 10 |  | CS[C@H]1O[C@@H](c2ccc(C)c(Cc3ccc(CCCC(=O)NC(C)(C)C(=O)N4CCC(C)CC4)cc3)c2)[C@H](O)[C@@H](O)[C@@H]1O [N-(2-methyl-1-(4-methylpiperidin-1-yl)-1-oxopropan-2-yl)-4-(4-(2-methyl-5-((2S,3R,4R,5S,6R)-3,4,5-trihydroxy-6-(methylthio)tetrahydro-2H-pyran-2-yl)benzyl)phenyl)butanamide]
8 | < 10 | < 10 |  | CS[C@H]1O[C@@H](c2ccc(C)c(Cc3ccc(OCCCC(=O)NC(C)(C)C(=O)NC4CCN(C)CC4)cc3)c2)[C@H](O)[C@@H](O)[C@@H]1O [N-(2-methyl-1-((1-methylpiperidin-4-yl)amino)-1-oxopropan-2-yl)-4-(4-(2-methyl-5-((2S,3R,4R,5S,6R)-3,4,5-trihydroxy-6-(methylthio)tetrahydro-2H-pyran-2-yl)benzyl)phenoxy)butanamide]
9 | < 10 | < 10 |  | CS[C@H]1O[C@@H](c2ccc(C)c(Cc3ccc(CCCC(=O)NC(C)(C)C(=O)NC4CCN(C)CC4)cc3)c2)[C@H](O)[C@@H](O)[C@@H]1O [N-(2-methyl-1-((1-methylpiperidin-4-yl)amino)-1-oxopropan-2-yl)-4-(4-(2-methyl-5-((2S,3R,4R,5S,6R)-3,4,5-trihydroxy-6-(methylthio)tetrahydro-2H-pyran-2-yl)benzyl)phenyl)butanamide]
10 | < 10 | < 10 |  | CNC(=O)C(C)(C)NC(=O)CCCc1ccc(Cc2cc([C@@H]3O[C@H](SC)[C@@H](O)[C@H](O)[C@H]3O)ccc2C)cc1 [N-(2-methyl-1-(methylamino)-1-oxopropan-2-yl)-4-(4-(2-methyl-5-((2S,3R,4R,5S,6R)-3,4,5-trihydroxy-6-(methylthio)tetrahydro-2H-pyran-2-yl)benzyl)phenyl)butanamide]
11 | < 10 | < 10 |  | CS[C@H]1O[C@@H](c2ccc(C)c(Cc3ccc(OCCCC(=O)NC(C)(C)C(=O)N4CCOCC4)cc3)c2)[C@H](O)[C@@H](O)[C@@H]1O [N-(2-methyl-1-morpholino-1-oxopropan-2-yl)-4-(4-(2-methyl-5-((2S,3R,4R,5S,6R)-3,4,5-trihydroxy-6-(methylthio)tetrahydro-2H-pyran-2-yl)benzyl)phenoxy)butanamide]
12 | < 10 | < 10 |  | CS[C@H]1O[C@@H](c2ccc(C)c(Cc3ccc(CCCC(=O)NC(C)(C)C(=O)N4CCOCC4)cc3)c2)[C@H](O)[C@@H](O)[C@@H]1O [N-(2-methyl-1-morpholino-1-oxopropan-2-yl)-4-(4-(2-methyl-5-((2S,3R,4R,5S,6R)-3,4,5-trihydroxy-6-(methylthio)tetrahydro-2H-pyran-2-yl)benzyl)phenyl)butanamide]
13 | < 10 | < 10 |  | CS[C@H]1O[C@@H](c2ccc(C)c(Cc3ccc(CCCC(=O)NC(C)(C)C(=O)N4CCNCC4)cc3)c2)[C@H](O)[C@@H](O)[C@@H]1O [N-(2-methyl-1-oxo-1-(piperazin-1-yl)propan-2-yl)-4-(4-(2-methyl-5-((2S,3R,4R,5S,6R)-3,4,5-trihydroxy-6-(methylthio)tetrahydro-2H-pyran-2-yl)benzyl)phenyl)butanamide]
14 | < 10 | < 10 |  | CS[C@H]1O[C@@H](c2ccc(C)c(Cc3ccc(OCCCC(=O)NC(C)(C)C(=O)NC4CCNCC4)cc3)c2)[C@H](O)[C@@H](O)[C@@H]1O [N-(2-methyl-1-oxo-1-(piperidin-4-ylamino)propan-2-yl)-4-(4-(2-methyl-5-((2S,3R,4R,5S,6R)-3,4,5-trihydroxy-6-(methylthio)tetrahydro-2H-pyran-2-yl)benzyl)phenoxy)butanamide]
15 | < 10 | < 10 |  | CS[C@H]1O[C@@H](c2ccc(C)c(Cc3ccc(CCCC(=O)NC(C)(C)C(=O)NC4CCNCC4)cc3)c2)[C@H](O)[C@@H](O)[C@@H]1O [N-(2-methyl-1-oxo-1-(piperidin-4-ylamino)propan-2-yl)-4-(4-(2-methyl-5-((2S,3R,4R,5S,6R)-3,4,5-trihydroxy-6-(methylthio)tetrahydro-2H-pyran-2-yl)benzyl)phenyl)butanamide]
16 | < 10 | < 100 |  | CS[C@H]1O[C@@H](c2ccc(Cl)c(Cc3ccc(OCCCNC(=O)C(C)(C)CO)cc3)c2)[C@H](O)[C@@H](O)[C@@H]1O [N-(3-(4-(2-chloro-5-((2S,3R,4R,5S,6R)-3,4,5-trihydroxy-6-(methylthio)tetrahydro-2H-pyran-2-yl)benzyl)phenoxy)propyl)-3-hydroxy-2,2-dimethylpropanamide]
17 | < 100 |  | — | CS[C@H]1O[C@@H](c2ccc(C)c(Cc3ccc(CCCC(=O)NCC(C)(C)C(=O)N(C)CCN(C)C)cc3)c2)[C@H](O)[C@@H](O)[C@@H]1O [N-(3-((2-(dimethylamino)ethyl)(methyl)amino)-2,2-dimethyl-3-oxopropyl)-4-(4-(2-methyl-5-((2S,3R,4R,5S,6R)-3,4,5-trihydroxy-6-(methylthio)tetrahydro-2H-pyran-2-yl)benzyl)phenyl)butanamide]
18 | < 10 | < 100 |  | CS[C@H]1O[C@@H](c2ccc(Cl)c(Cc3ccc(OCCCC(=O)NCC(C)(C)C(N)=O)cc3)c2)[C@H](O)[C@@H](O)[C@@H]1O [N-(3-amino-2,2-dimethyl-3-oxopropyl)-4-(4-(2-chloro-5-((2S,3R,4R,5S,6R)-3,4,5-trihydroxy-6-(methylthio)tetrahydro-2H-pyran-2-yl)benzyl)phenoxy)butanamide]
19 | < 10 | < 100 |  | CS[C@H]1O[C@@H](c2ccc(C)c(Cc3ccc(OCCCC(=O)NCC(C)(C)C(N)=O)cc3)c2)[C@H](O)[C@@H](O)[C@@H]1O [N-(3-amino-2,2-dimethyl-3-oxopropyl)-4-(4-(2-methyl-5-((2S,3R,4R,5S,6R)-3,4,5-trihydroxy-6-(methylthio)tetrahydro-2H-pyran-2-yl)benzyl)phenoxy)butanamide]
20 | < 10 | < 10 |  | CCC(=O)NCCCCc1ccc(Cc2cc([C@@H]3O[C@H](SC)[C@@H](O)[C@H](O)[C@H]3O)ccc2C)cc1 [N-(4-(4-(2-methyl-5-((2S,3R,4R,5S,6R)-3,4,5-trihydroxy-6-(methylthio)tetrahydro-2H-pyran-2-yl)benzyl)phenyl)butyl)propionamide]

Row | Structure (SMILES) | IC50 [1] [nM] | IC50 [2] [nM] | SGLT1 (human SGLT1 IC50) [2]
21 | CS[C@H]1O[C@@H](c2ccc(C)c(Cc3ccc(OCCCC(=O)NC(C)(C)C(=O)N4CCN(C)CC4)cc3)c2)[C@H](O)[C@@H](O)[C@@H]1O [N-(2-methyl-1-(4-methylpiperazin-1-yl)-1-oxopropan-2-yl)-4-(4-(2-methyl-5-((2S,3R,4R,5S,6R)-3,4,5-trihydroxy-6-(methylthio)tetrahydro-2H-pyran-2-yl)benzyl)phenoxy)butanamide] | < 10 | < 10 | 
